Measurements as given in ChEMBL document CHEMBL1201862, “PubChem BioAssay data set” (2004).
Calls of active or inactive are those of the source.

Experiments:
Coagulation factor XII = target: T1, Coagulation factor XII (Homo sapiens, UniProt P00748); format: functional;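 further: activated factor XIIa alpha cleaving a fluorogenic AMC peptide substrate; inhibitor potency from loss of enzyme activity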
T1 sequence (P00748 whole entry): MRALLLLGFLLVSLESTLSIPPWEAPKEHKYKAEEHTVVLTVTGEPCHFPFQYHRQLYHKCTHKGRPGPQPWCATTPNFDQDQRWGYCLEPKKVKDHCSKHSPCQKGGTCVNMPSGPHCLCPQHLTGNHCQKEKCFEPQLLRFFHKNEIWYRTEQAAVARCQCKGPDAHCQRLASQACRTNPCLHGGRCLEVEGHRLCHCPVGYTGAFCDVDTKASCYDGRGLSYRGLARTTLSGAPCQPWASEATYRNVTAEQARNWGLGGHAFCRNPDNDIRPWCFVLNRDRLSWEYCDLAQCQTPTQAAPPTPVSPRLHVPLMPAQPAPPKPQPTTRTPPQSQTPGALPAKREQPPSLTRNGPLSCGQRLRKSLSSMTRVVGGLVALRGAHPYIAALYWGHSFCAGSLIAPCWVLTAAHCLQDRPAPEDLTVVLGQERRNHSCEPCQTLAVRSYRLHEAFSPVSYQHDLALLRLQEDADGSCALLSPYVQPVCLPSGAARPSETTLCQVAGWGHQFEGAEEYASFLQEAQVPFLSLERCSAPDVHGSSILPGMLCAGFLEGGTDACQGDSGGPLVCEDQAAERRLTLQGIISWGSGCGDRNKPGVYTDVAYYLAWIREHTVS

INS1 = assay: beta cell apoptosis inhibitors, cytokine rescue, dose response, luminescence, retest (AID 449756); format: functional, cell-based; details: Rattus norvegicus;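 further: cell death triggered by IL-1 beta plus TNF-alpha plus IFN-gamma mixture; protective hits raise ATP signal compared with cytokine alone wells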
[1] = inhibitors of firefly luciferase expression or activity, dose response, H4 neuroglioma cells, luminescence (AID 1990); format: functional, cell-based
Vero [2] = assay: cells; format: functional; details: Chlorocebus sabaeus
[3] = HEp-2 cell cytotoxicity, dose response, cytotoxicity control for RSV inhibitor project, HTS (AID 2410); format: functional; details: human respiratory syncytial virus
[4] = Luminescence Cell-Based Dose Response HTS to Identify Inhibitors of 5'UTR Stem-Loop Driven Prion Protein mRNA Translation in H4 Neuroglioblastoma Cells. [Related pubchem assays: 1827 (Project Summary), 1813 (Primary HTS)]; format: functional
Vero [5] = assay: cells; format: functional, cell-based; details: Chlorocebus sabaeus
[6] = inhibitors of SNCA 5'UTR-driven reporter translation, confirmation, H4 neuroglioma cells, luminescence (AID 1988); format: functional, cell-based
[7] = target: Beta-2 adrenergic receptor (Homo sapiens, UniProt P07550); assay: beta2AR agonists driving receptor internalization, dose response, cell-based, FAP fluorogen, flow cytometry, cherry pick 1 (AID 588763); format: functional
[8] = target: T2, Calpain-2 catalytic subunit (Sus scrofa, UniProt P43367); assay: pig calpain II inhibitor potency, dose response, biochemical, fluorogenic peptide substrate (AID 1420); format: functional
T2 sequence (P43367 whole entry): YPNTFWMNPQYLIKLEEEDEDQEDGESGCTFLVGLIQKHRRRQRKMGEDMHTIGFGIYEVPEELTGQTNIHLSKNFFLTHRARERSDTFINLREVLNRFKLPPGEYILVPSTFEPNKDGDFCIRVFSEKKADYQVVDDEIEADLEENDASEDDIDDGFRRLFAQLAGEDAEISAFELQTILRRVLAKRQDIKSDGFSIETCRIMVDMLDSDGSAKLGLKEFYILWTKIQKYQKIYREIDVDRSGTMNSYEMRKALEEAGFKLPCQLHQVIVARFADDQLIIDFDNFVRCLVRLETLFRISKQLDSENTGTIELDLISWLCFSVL

[9] = target: T3, Carboxy-terminal domain RNA polymerase II polypeptide A small phosphatase 1 (Homo sapiens, UniProt Q9GZU7); assay: inhibitors of CTDSP1, concentration-response testing, biochemical assay, absorbance-based, actives from ultra-high-throughput screening (AID 540297); format: functional
T3 sequence (Q9GZU7 whole entry): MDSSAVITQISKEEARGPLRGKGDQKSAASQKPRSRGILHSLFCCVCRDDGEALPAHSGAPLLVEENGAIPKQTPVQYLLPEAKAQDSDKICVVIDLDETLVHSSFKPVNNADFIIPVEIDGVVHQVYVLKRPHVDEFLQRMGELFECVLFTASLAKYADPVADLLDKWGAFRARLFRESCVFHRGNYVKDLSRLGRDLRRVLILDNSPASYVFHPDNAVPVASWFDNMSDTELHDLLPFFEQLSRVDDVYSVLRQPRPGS

Chain of Beta-2 adrenergic receptor (P07550 whole entry): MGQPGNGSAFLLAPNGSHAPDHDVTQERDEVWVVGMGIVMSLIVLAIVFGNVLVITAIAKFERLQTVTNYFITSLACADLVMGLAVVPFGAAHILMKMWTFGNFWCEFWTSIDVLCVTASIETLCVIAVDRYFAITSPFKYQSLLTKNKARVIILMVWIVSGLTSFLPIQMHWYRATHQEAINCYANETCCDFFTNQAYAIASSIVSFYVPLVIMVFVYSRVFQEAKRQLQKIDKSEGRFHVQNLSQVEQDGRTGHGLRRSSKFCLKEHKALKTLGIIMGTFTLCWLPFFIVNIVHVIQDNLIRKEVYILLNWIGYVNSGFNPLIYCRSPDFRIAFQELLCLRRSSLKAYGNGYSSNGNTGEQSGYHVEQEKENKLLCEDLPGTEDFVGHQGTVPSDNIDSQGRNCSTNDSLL

SMILES: c1ccc(-c2csc3ncnc(NCC4COc5ccccc5O4)c23)cc1 (centres undefined)
- IC50 (Coagulation factor XII): > 50 µM (inactive)
- AC50 (INS1): 1.41 µM (active)

SMILES: CCOc1ccccc1CNC(=O)c1cc2oc3ccccc3c2n1CC
- EC50 [1]: > 120 µM (not active)
- IC50 (cells): 42.3 µM (active)
- CC50 (Vero [2]): > 25 µM (active)
- CC50 [3]: 13.8 µM (active)
- EC50 [4]: 16.6 µM (active)
- IC50 (Vero [5]): > 12.5 µM (active)
- EC50 [6]: 14.9 µM (active)

SMILES: CCOc1ccc2nc(NC(=O)CSc3nc4cccnc4n3C)sc2c1
- EC50 [7]: 2.44 µM (active)

SMILES: O=C1CC(c2ccccc2)(c2ccccc2)c2ccccc21
- EC50 [7]: 17.1 µM (inactive)

SMILES: C=CCNC(=S)N/N=C/c1ccc(C)c([N+](=O)[O-])c1
- IC50 (Coagulation factor XII): > 50 µM (inactive)
- IC50 [8]: 3.49 µM (not active)

SMILES: O=C(O)c1ccc(Oc2ccc(S(=O)(=O)c3ccc(C(=O)O)c(C(=O)O)c3)cc2)cc1
- IC50 [9]: 6.97 µM (active)
